The results in this text go back to US10364240B2, “Aryl sulfonamides” (ChemoCentryx, Inc., priority 2002, dated 2019).

SMILES strings stand for the structures. Some results are limits rather than exact numbers.

One experiment has as its system MDR1a-knockout mice. In words: MDR1a-knockout mice colitis model, prophylactic administration. Conditions: female mice, 50 mg/kg twice a day subcutaneous, 14 weeks from age 10 weeks. Type of experiment: in vivo. The method, then: The MDR1a-knockout mice, which lack the P-glycoprotein gene, spontaneously develop colitis under specific pathogen-free condition. The pathology in these animals has been characterized as Th1-type T cell-mediated inflammation similar to ulcerative colitis in humans. Disease normally begins to develop at around 8-10 weeks after birth. However the ages at which disease emerges and the ultimate penetrance level often vary considerably among different animal facilities.
[drawing 328] was evaluated by prophylactic administration for its ability to delay disease onset. Female mice (n=34) were dosed with 50 mg/kg twice a day by subcutaneous injections for 14 consecutive weeks starting at age 10 weeks. […] Moreover, the number of mice developing diarrhea was also lower among compound-treated mice (17%), compared to mice receiving vehicle alone (24%)(FIG. 1).

For another experiment, the target named is T1, CCR9 (Homo sapiens, UniProt P51686).
T1 construct: CCR9-expressing cells (such as a T cell line MOLT-4 cells)
T1 sequence (P51686 1-369): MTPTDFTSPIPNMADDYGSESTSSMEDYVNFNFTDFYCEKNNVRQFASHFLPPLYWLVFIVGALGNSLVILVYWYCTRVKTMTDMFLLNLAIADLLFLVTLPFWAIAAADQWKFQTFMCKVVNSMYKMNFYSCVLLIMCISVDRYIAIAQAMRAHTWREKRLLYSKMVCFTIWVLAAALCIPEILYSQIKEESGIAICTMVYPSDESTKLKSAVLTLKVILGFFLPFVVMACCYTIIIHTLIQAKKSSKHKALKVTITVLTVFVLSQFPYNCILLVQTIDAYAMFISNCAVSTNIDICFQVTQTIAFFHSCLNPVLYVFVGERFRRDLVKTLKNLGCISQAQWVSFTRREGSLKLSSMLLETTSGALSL
Description: chemotaxis (conventional migration) assay and/or calcium mobilization (calcium flux) assay. Type of experiment: cell-based. The settings on record: either or both of the chemotaxis assay and calcium mobilization assays; MOLT-4 cells, TECK. The method, then: MOLT-4 cells were obtained from the American Type Culture Collection (Manassas, Va.) and cultured in RPMI tissue culture medium supplemented with 10% fetal calf serum (FCS) in a humidified 5% CO2 incubator at 37° C. Recombinant human chemokine protein TECK was obtained from R&D Systems (Minneapolis, Minn.). ChemoTX® chemotaxis microchambers were purchased from Neuro Probe (Gaithersburg, Md.). CyQUANT® cell proliferation kits were purchased from Molecular Probes (Eugene, Oreg.). Calcium indicator dye Fluo-4 AM was purchased from Molecular Devices (Mountain View, Calif.).
Conventional migration assay was used to determine the efficacy of potential receptor antagonists in blocking migration mediated through CCR9. This assay was routinely performed using the ChemoTX® microchamber system with a 5-μm pore-sized polycarbonate membrane. To begin such an assay, MOLT-4 cells were harvested by centrifugation of cell suspension at 1000 PRM on a GS-6R Beckman centrifuge. The cell pellet was resuspended in chemotaxis buffer (HBSS with 0.1% BSA) at 5×10^6 cells/mL. Test compounds at desired concentrations were prepared from 10 mM stock solutions by serial dilutions in chemotaxis buffer. An equal volume of cells and compounds were mixed and incubated at room temperature for 15 minutes. Afterwards, 20 μL of the mixture was transferred onto the porus membrane of a migration microchamber, with 29 μL of 50 nM chemokine TECK protein placed at the lower chamber. Following a 150-minute incubation at 37° C., during which cells migrated against the chemokine gradient, the assay was terminated by removing the cell drops from atop the filter. To quantify cells migrated across the membrane, 5 μL of 7× CyQUANT® solution was added to each well in the lower chamber, and the fluorescence signal measured on a Spectrafluor Plus fluorescence plate reader (TECAN, Durham, N.C.). The degree of inhibition was determined by comparing migration signals betweeen compound-treated and untreated cells. IC50 calculation was further performed by non-linear squares regression analysis using Graphpad Prism (Graphpad Software, San Diego, Calif.).
Calcium flux assay measures an increase in intracellular calcium following ligand-induced receptor activation. In the screen of CCR9 antagonists, it was used as a secondary assay carried out on a FLIPR® machine (Molecular Devices, Mountain View, Calif.). To begin an assay, MOLT-4 cells were harvested by centrifugation of cell suspension, and resuspended to 1.5×10^6 cells/mL in HBSS (with 1% fetal calf serum). Cells were then labeled with a calcium indicator dye Fluo-4 AM for 45 minutes at 37° C. with gentle shaking. Following incubation, cells were pelletted, washed once with HBSS and resuspended in the same buffer at a density of 1.6×10^6 cells/mL. One hundred microliters of labeled cells were mixed with 10 μL of test compound at the appropriate concentrations on an assay plate. […] The degree of inhibition was determined by comparing calcium signals between compound-treated and untreated cells. IC50 calculations were further performed by non-linear squares regression analysis using Graphpad Prism (Graphpad Software, San Diego, Calif.).
On the technique in general: A change in cytosolic calcium serves as a functional read-out for many receptors and channels.

In the case of `CC(C)(C)c1ccc(S(=O)(=O)Nc2ccc(Cl)cc2C(=O)c2ccncc2)cc1`, the IBD-associated growth retardation entry in the experiment on MDR1a-knockout mice was “prevented IBD-associated growth retardation”. Also, the “number of mice developing diarrhea” value in the experiment on MDR1a-knockout mice (vehicle 24%) is 17%.

Regarding `Cc1cc(C(=O)c2cc(Cl)ccc2NS(=O)(=O)c2ccc(-c3ncco3)cc2)ccn1`, the concentration for half-maximal inhibition (IC50) (as a rule, the point on the concentration scale where inhibition reaches its midpoint) on CCR9 is less than 1 µM.

In the case of `CC(C)(c1ccc(S(=O)(=O)Nc2ccc(Cl)cc2C(=O)c2ccccn2)cc1)c1ncco1`, the IC50 at CCR9 is less than 1 µM.

Take `CC1(c2ccc(S(=O)(=O)Nc3ccc(Cl)cc3C(=O)c3cc[nH]n3)cc2)CCOCC1`: the IC50 on CCR9 was less than 1 µM.

As to `CC1COC(C)(c2ccc(S(=O)(=O)Nc3ccc(Cl)cc3C(=O)c3ccncc3)cc2)O1` (stereo not drawn), at CCR9, the half-maximal inhibitory concentration (IC50) is less than 1 µM.

Regarding `C[C@@H]1CC(c2ccc(S(=O)(=O)Nc3ccc(Cl)cc3C(=O)c3cccnc3)cc2)C[C@H](C)O1` (stereo partly drawn), on CCR9, the IC50 was less than 1 µM.

As to `Cc1ccc(C(=O)c2cc(Cl)ccc2NS(=O)(=O)c2ccc(C3C[C@@H](C)O[C@@H](C)C3)cc2)cn1` (stereo partly drawn), the IC50 on CCR9 is less than 1 µM.

Regarding `C[C@@H]1CN(c2ccc(S(=O)(=O)Nc3ccc(Cl)cc3C(=O)c3cccnc3)cc2F)C[C@H](C)O1`, the IC50 at CCR9 is less than 1 µM.

Consider `Cc1ccc(S(=O)(=O)Nc2ccc(Cl)cc2C(=O)c2ccncc2)cc1`, for which the IC50 at CCR9 was less than 1 µM.

`Cc1ccc(C(=O)c2cc(Cl)ccc2NS(=O)(=O)c2ccc(S(C)(=O)=O)cc2)cn1`: the IC50 on CCR9 is less than 1 µM.

For the molecule `CS(=O)(=O)c1ccc(S(=O)(=O)Nc2ccc(Br)cc2C(=O)c2ccncc2)cc1`, at CCR9, the IC50 was less than 1 µM.

Take `CC(C)(C)c1ccc(S(=O)(=O)Nc2ccc(Cl)cc2C(=O)c2ncccn2)cc1`: the IC50 at CCR9 was less than 1 µM.

Turning to `O=C(c1ccncc1)c1cc(Br)ccc1NS(=O)(=O)c1ccc(OC(F)(F)F)cc1`, the IC50 on CCR9 is less than 1 µM.

For the molecule `CC(C)(CO)c1ccc(S(=O)(=O)Nc2ccc(Cl)cc2C(=O)c2cc[n+]([O-])cc2)cc1`, on CCR9, the IC50 was less than 1 µM.

Consider `CC(=O)OCC(C)(C)c1ccc(S(=O)(=O)Nc2ccc(Cl)cc2C(=O)c2ccncc2)cc1`, for which the IC50 at CCR9 was less than 1 µM.

Take `O=C(c1cccnc1)c1cc(Cl)ccc1NS(=O)(=O)c1ccc(-c2cnco2)cc1`: at CCR9, the IC50 was less than 1 µM.

In the case of `Cc1c(C(=O)c2cc(Cl)ccc2NS(=O)(=O)c2ccc(OC(C)C)cc2)ccc[n+]1[O-]`, the IC50 at CCR9 is less than 1 µM.

On to `O=C(c1ccncc1)c1cc(Cl)ccc1NS(=O)(=O)c1ccc(Br)cc1`, for which the IC50 at CCR9 was less than 1 µM.

On to `CSc1cc(C(=O)c2cc(Cl)ccc2NS(=O)(=O)c2ccc(C(C)(C)C)cc2)ccn1`, for which the IC50 on CCR9 is less than 1 µM.

On to `COc1cc(C(=O)c2cc(Cl)ccc2NS(=O)(=O)c2ccc(C(C)(C)C)cc2)ccn1`, for which the IC50 on CCR9 is less than 1 µM.

Take `COC(=O)CCc1ccc(S(=O)(=O)Nc2ccc(Cl)cc2C(=O)c2ccc(C)nc2)cc1`: the IC50 on CCR9 was less than 1 µM.

On to `Cc1ccc(C(=O)c2cc(Cl)ccc2NS(=O)(=O)c2ccc(OC(F)(F)F)cc2)c[n+]1[O-]`, for which the IC50 on CCR9 is less than 1 µM.

As to `Cc1ccc(C(=O)c2cc(Cl)ccc2NS(=O)(=O)c2ccc(OC(C)C)cc2)c[n+]1[O-]`, the IC50 on CCR9 was less than 1 µM.

For the molecule `CC(C)(C)c1ccc(S(=O)(=O)Nc2ccc(Cl)cc2C(=O)c2ccc(S(C)(=O)=O)nc2)cc1`, the IC50 on CCR9 is less than 1 µM.

For `O=C(c1ncccn1)c1cc(Cl)ccc1NS(=O)(=O)c1ccc(-c2cnco2)cc1`, the IC50 at CCR9 was less than 1 µM.

For `O=C(c1cc[n+]([O-])cc1)c1cc(Cl)ccc1NS(=O)(=O)c1ccc(-c2cnco2)cc1`, the IC50 on CCR9 was less than 1 µM.

On to `CC(C)(C)c1ccc(S(=O)(=O)Nc2ccc(Cl)cc2C(=O)c2cccc[n+]2[O-])cc1`, for which the IC50 at CCR9 was less than 1 µM.

With `Cc1nc(C)c(-c2ccc(S(=O)(=O)Nc3ccc(Cl)cc3C(=O)c3ccncc3)cc2)o1`, on CCR9, the IC50 was less than 1 µM.

As to `O=C(c1ccncc1)c1cc(Cl)ccc1NS(=O)(=O)c1ccc2c(c1)CNCC2`, at CCR9, the IC50 is less than 1 µM.

Take `CCc1ccc(S(=O)(=O)Nc2ccc(Br)cc2C(=O)c2ccncc2)cc1`: at CCR9, the IC50 was less than 1 µM.

On to `COC(=O)CCc1ccc(S(=O)(=O)Nc2ccc(Cl)cc2C(=O)c2cccnc2C)cc1`, for which the IC50 on CCR9 is less than 1 µM.

Take `CC(C)(C)c1ccc(S(=O)(=O)Nc2ccc(Cl)cc2C(=O)c2cnccn2)cc1`: the IC50 on CCR9 was less than 1 µM.

In the case of `CC(C)(C)c1ccc(S(=O)(=O)Nc2c(Cl)cccc2C(=O)c2ccncc2)cc1`, the IC50 at CCR9 was less than 1 µM.

In the case of `Cc1c(C(=O)c2cc(Cl)ccc2NS(=O)(=O)c2ccc(OC(F)(F)F)cc2)ccc[n+]1[O-]`, on CCR9, the IC50 was less than 1 µM.

Consider `O=C(c1cccnc1)c1cc(Cl)ccc1NS(=O)(=O)c1ccc(-c2cocn2)cc1`, for which, at CCR9, the IC50 was less than 1 µM.

For the molecule `CC(C)(c1ccc(S(=O)(=O)Nc2cc(F)c(F)cc2C(=O)c2cccnc2)cc1)c1ncco1`, the IC50 on CCR9 is less than 1 µM.

As for `CS(=O)(=O)c1ccc(S(=O)(=O)Nc2ccc(Cl)cc2C(=O)c2cccnc2)cc1`, the IC50 at CCR9 is more than 1 µM.

Consider `COc1ccc(S(=O)(=O)Nc2ccc(Cl)cc2C(=O)c2ccccn2)cc1`, for which the IC50 at CCR9 is more than 1 µM.

Consider `Cc1cc(C(=O)c2cc(Cl)ccc2NS(=O)(=O)c2ccc(S(C)(=O)=O)cc2)ccn1`, for which the IC50 at CCR9 is more than 1 µM.

In the case of `COC(=O)CCc1ccc(S(=O)(=O)Nc2ccc(Cl)cc2C(=O)c2ccnc(C)c2)cc1`, on CCR9, the IC50 is more than 1 µM.

`O=C(c1cccnc1)c1cc(Cl)ccc1NS(=O)(=O)c1ccc(-c2nccs2)cc1`: at CCR9, the IC50 is more than 1 µM.

Take `C[C@H]1OC(C)(c2ccc(S(=O)(=O)Nc3ccc(Cl)cc3C(=O)c3ccncc3)cc2)O[C@@H]1C`: the IC50 on CCR9 is more than 1 µM.

Consider `COc1c(Cl)ccc(NS(=O)(=O)c2ccc(C(C)(C)C)cc2)c1C(=O)c1ccncc1` [drawing 475], for which the IC50 on CCR9 was less than 1 µM.

For the molecule `COc1c(Cl)ccc(NS(=O)(=O)c2ccc(C(C)(C)C)cc2)c1C(=O)c1ccncc1` [drawing 520], the IC50 at CCR9 was more than 1 µM.
